Assay results reported in patent US7521444B2, “Compounds for the treatment of hepatitis C” (Bristol-Myers Squibb Company, priority 2007, dated 2009).

Columns and labels:
HCV NS5B = biological target: T1, HCV NS5B (Hepatitis C virus genotype 1b, UniProt Q9WMX2); assay: HCV NS5B RdRp enzyme assay (standard or modified); assay type: biochemical; details: HCV NS5B RdRp genotype 1b enzyme; standard or modified assay not stated
T1 construct: The protein was expressed with an 18 amino acid C-terminal truncation to enhance the solubility; made in house; host or cells: E. coli BL21(DE3), pET21a
T1 sequence (Q9WMX2 2420-2992): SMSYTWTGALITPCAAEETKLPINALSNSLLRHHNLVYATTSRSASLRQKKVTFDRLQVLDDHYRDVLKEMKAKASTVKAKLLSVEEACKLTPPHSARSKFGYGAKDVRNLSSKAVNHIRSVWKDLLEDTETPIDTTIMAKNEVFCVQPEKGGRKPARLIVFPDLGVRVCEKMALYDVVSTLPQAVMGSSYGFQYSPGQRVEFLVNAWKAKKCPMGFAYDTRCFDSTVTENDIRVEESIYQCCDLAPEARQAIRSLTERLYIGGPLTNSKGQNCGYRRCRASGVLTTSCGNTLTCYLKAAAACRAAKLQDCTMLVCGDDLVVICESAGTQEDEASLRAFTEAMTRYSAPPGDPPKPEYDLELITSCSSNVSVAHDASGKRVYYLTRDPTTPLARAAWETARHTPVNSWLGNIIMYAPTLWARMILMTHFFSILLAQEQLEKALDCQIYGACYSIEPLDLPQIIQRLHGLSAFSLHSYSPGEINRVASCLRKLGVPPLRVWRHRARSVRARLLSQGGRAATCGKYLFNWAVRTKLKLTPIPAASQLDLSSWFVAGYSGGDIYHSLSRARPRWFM
Description: HCV NS5B RdRp cloning, expression, and purification. The cDNA encoding the NS5B protein of HCV, genotype 1b, was cloned into the pET21a expression vector. The protein was expressed with an 18 amino acid C-terminal truncation to enhance the solubility. The E. coli competent cell line BL21(DE3) was used for expression of the protein. Cultures were grown at 37° C. for ˜4 hours until the cultures reached an optical density of 2.0 at 600 nm. The cultures were cooled to 20° C. and induced with 1 mM IPTG. Fresh ampicillin was added to a final concentration of 50 μg/ml and the cells were grown overnight at 20° C.
Cell pellets (3 L) were lysed for purification to yield 15-24 mgs of purified NS5B. The lysis buffer consisted of 20 mM Tris-HCl, pH 7.4, 500 mM NaCl, 0.5% triton X-100, 1 mM DTT, 1 mM EDTA, 20% glycerol, 0.5 mg/ml lysozyme, 10 mM MgCl2, 15 ug/ml deoxyribonuclease I, and Complete TM protease inhibitor tablets (Roche). After addition of the lysis buffer, frozen cell pellets were resuspended using a tissue homogenizer. To reduce the viscosity of the sample, aliquots of the lysate were sonicated on ice using a microtip attached to a Branson sonicator. The sonicated lysate was centrifuged at 100,000×g for 1 hr at 4° C. and filtered through a 0.2 μm filter unit (Corning).
The protein was purified using two sequential chromatography steps: Heparin sepharose CL-6B and polyU sepharose 4B (Pharmacia). The chromatography buffers were identical to the lysis buffer but contained no lysozyme, deoxyribonuclease I, MgCl2 or protease inhibitor and the NaCl concentration of the buffer was adjusted according to the requirements for charging the protein onto the column. Each column was eluted with a NaCl gradient which varied in length from 5-50 column volumes depending on the column type. After the final chromatography step, the resulting purity of the enzyme is >90% based on SDS-PAGE analysis. The enzyme was aliquoted and stored at −80° C.
Standard HCV NS5B RdRp enzyme assay. HCV RdRp genotype 1b assays were run in a final volume of 60 μl in 96 well plates (Corning 3600). The assay buffer is composed of 20 mM Hepes, pH 7.5, 2.5 mM KCl, 2.5 mM MgCl2, 1 mM DTT, 1.6 U RNAse inhibitor (Promega N2515), 0.01 mg/ml BSA (Sigma B6917), and 2% glycerol. All compounds were serially diluted (3-fold) in DMSO and diluted further in water such that the final concentration of DMSO in the assay was 2%. HCV RdRp genotype 1b enzyme was used at a final concentration of 28 nM. A polyA template was used at 6 nM, and a biotinylated oligo-dT12 primer was used at 180 nM final concentration. Template was obtained commercially (Amersham 27-4110). Biotinylated primer was prepared by Sigma Genosys. 3H-UTP was used at 0.6 μCi (0.29 μM total UTP). Reactions were initiated by the addition of enzyme, incubated at 30° C. for 60 min, and stopped by adding 25 μl of 50 mM EDTA containing SPA beads (4 μg/μl, Amersham RPNQ 0007). Plates were read on a Packard Top Count NXT after >1 hr incubation at room temperature.
Modified HCV NS5B RdRp enzyme assay. A modified enzyme assay was performed essentially as described for the standard enzyme assay except for the following: The biotinylated oligo dT12 primer was precaptured on streptavidin-coated SPA beads by mixing primer and beads in assay buffer and incubating at room temperature for one hour. Unbound primer was removed after centrifugation. The primer-bound beads were resuspended in 20 mM Hepes buffer, pH 7.5 and used in the assay at final concentrations of 20 nM primer and 0.67 μg/μl beads. Order of addition in the assay: enzyme (1.75 nM) was added to diluted compound followed by the addition of a mixture of template (0.36 nM), 3H-UTP (0.6 μCi, 0.29 μM), and primer-bound beads, to initiate the reaction; concentrations given are final. Reactions were allowed to proceed for 4 hours at 30° C.
IC50 values for compounds were determined using seven different [I]. […]

HCV replicon cells = assay: HCV replicon FRET / luciferase assay; assay type: cell-based; details: 50% reduction in FRET or luciferase activity
Description: FRET Assay Preparation. The HCV FRET screening assay was performed in 96-well cell culture plates. The FRET peptide (Anaspec, Inc.) (Taliani et al., Anal. Biochem. 1996, 240, 60-67) contains a fluorescence donor, EDANS, near one end of the peptide and an acceptor, DABCYL, near the other end. The fluorescence of the peptide is quenched by […] resonance energy transfer (RET) between the donor and the acceptor, but as the NS3 protease cleaves the peptide the products are released from RET quenching and the fluorescence of the donor becomes apparent. The assay reagent was made as follows: 5× cell Luciferase cell culture lysis reagent from Promega (#E153A) diluted to 1× with dH2O, NaCl added to 150 mM final, the FRET peptide diluted to 20 μM final from a 2 mM stock.
To prepare plates, HCV replicon cells, with or without a Renilla luciferase reporter gene, were trypsinized and plated in a 96-well plate with titrated test compounds added in columns 3 through 12; columns 1 and 2 contained a control compound (HCV control inhibitor), and the bottom row contained cells with DMSO only. The plates were then placed in a CO2 incubator at 37° C.
Assays. Subsequent to addition of the test compounds described above (FRET Assay Preparation), at various times the plate was removed and Alamar blue solution (Trek Diagnostics, #00-100) was added to measure cellular toxicity. After reading in a Cytoflour 4000 instrument (PE Biosystems), plates were rinsed with PBS and then used for FRET assay by the addition of 30 ul of the FRET peptide assay reagent described above (FRET Assay Preparation) per well. The plate was then placed into the Cytoflour 4000 instrument which had been set to 340 excite/490 emission, automatic mode for up to 20 cycles and the plate read in a kinetic mode. Typically, the signal to noise using an endpoint analysis after the reads was at least three-fold. Alternatively, after Alamar blue reading, plates were rinsed with PBS, then used for luciferase assay using the Promega Dual-Glo Luciferase Assay System or the Promega EnduRen Live Cell Substrate assay.
Compound analysis was performed by quantification of the relative HCV replicon inhibition and the relative cytotoxicity values. To calculate cytoxicity values, the average Alamar Blue fluorescence signals from the control wells were set as 100% non-toxic. The individual signals in each of the compound test wells were then divided by the average control signal and multiplied by 100% to determine […]. To calculate the HCV replicon inhibition values, an average background value was obtained from the two wells containing the highest amount of HCV control inhibitor at the end of the assay period. These numbers were similar to those obtained from naïve Huh-7 cells. The background numbers were then subtracted from the average signal obtained from the control wells and this number was used as 100% activity. The individual signals in each of the compound test wells were then divided by the averaged control values after background subtraction and multiplied by 100% to determine percent activity. EC50 values were calculated as the concentration which caused a 50% reduction in FRET or luciferase activity. The two numbers generated for the compound plate, percent cytoxicity and percent activity, were used to determine compounds of interest for further analysis.

SMILES | IC50 (HCV NS5B) [µM] | EC50 (HCV replicon cells; Hepatitis C virus) [µM] | EC50 (HCV replicon cells) [µM]
COc1ccc2c(c1)C1CC1(C(=O)N1CCN3CCCC3C1)Cn1c-2c(C2CCCCC2)c2ccc(C(=O)NS(=O)(=O)N(C)C)cc21 (stereo not drawn) | 0.00458 to 0.5 | 0.00458 to 0.5 | 
COc1ccc2c(c1)C1CC1(C(=O)N1CCN3CCCC3C1)Cn1c-2c(C2CCCCC2)c2ccc(C(=O)NS(=O)(=O)N3CCC3)cc21 (stereo not drawn) | 0.00458 to 0.5 | 0.00458 to 0.5 | 
COc1ccc2c(c1)C1CC1(C(=O)N1CC3CN(C(=O)C4CC4)CC3C1)Cn1c-2c(C2CCCCC2)c2ccc(C(=O)NS(N)(=O)=O)cc21 (stereo not drawn) | 0.00458 to 0.5 |  | 
COc1ccc2c(c1)C1CC1(C(=O)N1CC3CN(C(=O)OC(C)(C)C)CC3C1)Cn1c-2c(C2CCCCC2)c2ccc(C(=O)NS(=O)(=O)C3CC3)cc21 (stereo not drawn) | 0.00458 to 0.5 |  | 
COc1ccc2c(c1)[C@@H]1C[C@]1(C(=O)N1CC3CCCN(C(C)=O)C3C1)Cn1c-2c(C2CCCCC2)c2ccc(C(=O)NS(=O)(=O)N(C)C)cc21 (stereo partly drawn) [drawing 72] | 0.00458 to 0.5 | 0.00458 to 0.5 | 
COc1ccc2c(c1)C1CC1(C(=O)N1CCC[C@H]3CN(Cc4ccccc4)C[C@H]31)Cn1c-2c(C2CCCCC2)c2ccc(C(=O)NS(N)(=O)=O)cc21 (stereo partly drawn) | 0.00458 to 0.5 | 0.00458 to 0.5 | 
COc1ccc2c(c1)C1CC1(C(=O)N1CCN3CCCCC3C1)Cn1c-2c(C2CCCCC2)c2ccc(C(=O)NS(C)(=O)=O)cc21 (stereo not drawn) | 0.00458 to 0.5 | 0.00458 to 0.5 | 
COc1ccc2c(c1)[C@@H]1C[C@]1(C(=O)N1CCN3CCC[C@H]3C1)Cn1c-2c(C2CCCCC2)c2ccc(C(=O)NS(=O)(=O)N(C)C)cc21 | 0.00458 to 0.5 | 0.00458 to 0.5 | 
COc1ccc2c(c1)C1CC1(C(=O)N1CC3CCCN(C(C)=O)C3C1)Cn1c-2c(C2CCCCC2)c2ccc(C(=O)NS(=O)(=O)C3CC3)cc21 (stereo not drawn) [drawing 67] | 0.00458 to 0.5 | 0.00458 to 0.5 | 
COc1ccc2c(c1)C1CC1(C(=O)N1CC3CCCN(C)C3C1)Cn1c-2c(C2CCCCC2)c2ccc(C(=O)NS(=O)(=O)N(C)C)cc21 (stereo not drawn) | 0.00458 to 0.5 | 0.00458 to 0.5 | 
COc1ccc2c(c1)C1CC1(C(=O)N1CCN3CCC[C@H]3C1)Cn1c-2c(C2CCCCC2)c2ccc(C(=O)NS(=O)(=O)N3CCC3)cc21 (stereo partly drawn) | 0.00458 to 0.5 | 0.00458 to 0.5 | 
COc1ccc2c(c1)C1CC1(C(=O)N1CC3CN(C)CC3C1)Cn1c-2c(C2CCCCC2)c2ccc(C(=O)NS(=O)(=O)N(C)C)cc21 (stereo not drawn) | 0.00458 to 0.5 | 0.00458 to 0.5 | 
COc1ccc2c(c1)C1CC1(C(=O)N1CC3CN(C(=O)N(C)C)CC3C1)Cn1c-2c(C2CCCCC2)c2ccc(C(=O)NS(N)(=O)=O)cc21 (stereo not drawn) | 0.00458 to 0.5 |  | 
COc1ccc2c(c1)C1CC1(C(=O)N1CC3CN(C)CC3C1)Cn1c-2c(C2CCCCC2)c2ccc(C(=O)NS(=O)(=O)C3CC3)cc21 (stereo not drawn) | 0.00458 to 0.5 | 0.00458 to 0.5 | 
COc1ccc2c(c1)C1CC1(C(=O)N1CC3CNCC3C1)Cn1c-2c(C2CCCCC2)c2ccc(C(=O)NS(N)(=O)=O)cc21 (stereo not drawn) | 0.00458 to 0.5 | > 0.5 | 
COc1ccc2c(c1)C1CC1(C(=O)N1CCN3CCC[C@@H]3C1)Cn1c-2c(C2CCCCC2)c2ccc(C(=O)NS(=O)(=O)N3CCOCC3)cc21 (stereo partly drawn) | 0.00458 to 0.5 | 0.00458 to 0.5 | 
COc1ccc2c(c1)C1CC1(C(=O)N1CCN3CCCC3C1C)Cn1c-2c(C2CCCCC2)c2ccc(C(=O)NS(=O)(=O)N(C)C)cc21 (stereo not drawn) | 0.00458 to 0.5 | 0.00458 to 0.5 | 
COc1ccc2c(c1)C1CC1(C(=O)N1CC3CCCN(C(C)=O)C3C1)Cn1c-2c(C2CCCCC2)c2ccc(C(=O)NS(=O)(=O)N(C)C)cc21 (stereo not drawn) [drawing 36] | 0.00458 to 0.5 |  | 0.00458 to 0.5
COc1ccc2c(c1)C1CC1(C(=O)N1CC3CN(Cc4ccccc4)CC3C1)Cn1c-2c(C2CCCCC2)c2ccc(C(=O)NS(N)(=O)=O)cc21 (stereo not drawn) | 0.00458 to 0.5 | 0.00458 to 0.5 | 
COc1ccc2c(c1)C1CC1(C(=O)N1CCC[C@H]3CN(Cc4ccccc4)C[C@H]31)Cn1c-2c(C2CCCCC2)c2ccc(C(=O)NS(=O)(=O)C3CC3)cc21 (stereo partly drawn) | 0.00458 to 0.5 | 0.00458 to 0.5 | 
COc1ccc2c(c1)C1CC1(C(=O)N1C[C@H]3CN(Cc4ccccc4)C[C@H]3C1)Cn1c-2c(C2CCCCC2)c2ccc(C(=O)NS(=O)(=O)N(C)C)cc21 (stereo partly drawn) | 0.00458 to 0.5 | 0.00458 to 0.5 | 
